Patent US20250382631A1, “PROTAC-CID SYSTEMS FOR USE IN MULTIPLEX GENE REGULATION” (William Marsh Rice University, priority 2022, published 2025)

Tests used:
[1] = after MZ1 administration, FIG. 23
[2] = test system: endogenous HEK3 locus in HEK293T cells; experiment: Inducible prime editing, His6 Tag insertion (Sanger sequencing, TIDE); assay type: cell-based, human; conditions: high TRE3G-driven PE2 plasmid dose (120 ng per well), 100 nM dTAG-13, 3 days, FIG. 3H
Protocol: Prime editing measurement. HEK293T cells were seeded into 96 well plates (Corning no. 3598). When the cells reach 20% confluency, 265 ng to 290 ng plasmids (See Table 1 for plasmid dosage used in each condition) were firstly mixed with 25 μL DMEM. 0.5 μL Lipofectamine 2000 (Life Technology no. 11661089) was incubated with 25 μL DMEM for 5 min. Next, plasmid solution was mixed with the Lipofectamine 2000 solution for 20 min and added into the cells gently. After 12 h, the supernatants were changed with fresh 10% FBS (Thermo Fisher Scientific no. 10437028) DMEM medium (Thermo Fisher Scientific no. 10569044) supplied with Puromycin (10 μg/mL Thermo Fisher Scientific no. A1113803) and 100 nM dTAG-13 (TOCRIS no. 6605/5) or DMSO (Sigma, no. D8418). 3 days post-induction, the supernatant was removed and supplied with 100 μL lysis buffer (10 mM tris-HCl (pH=7.5), 0.05% SDS, and proteinase K (25 μg/mL, Thermo Fisher Scientific no. 01169965)) followed by 37° C. 1 h, 58° C. 30 min and inactivated at 95° C. for 20 min. […] The insertion efficiency was analyzed online in TIDE (https://tide.nki.nl/) (Brinkman et al., 2018) with the setting (left boundary=100, Decomposition window (115-685 bp), Indel size range (28 bp), P-value threshold=0.001).

[3] = test system: three different genomic sites in HEK293T cells; experiment: Inducible C-to-T base editing by A3G5.13 (Sanger sequencing, EditR); assay type: cell-based, human; conditions: CBE A3G5.13 with dTAG-13 PROTAC-CID, 100 nM dTAG-13, 3 days, across three genomic sites, FIG. 3C
Protocol: Base editing measurement. Before transfection, HEK293T cells were plated into 96 well plates (Corning no. 3598) with 20% confluency. 0.5 μL Lipofectamine 2000 (Life Technology no. 11661089) was mixed with 25 μL DMEM for 5 mins incubation. 80 ng to 210 ng Plasmids (See Table 1 for plasmid dosage used in each condition) were then mixed with 25 μL DMEM and added into the Lipofectamine 2000 and DMEM mixture for 20 min incubation at the room temperature. Mixture was added into cells gently. After 12 h, supernatants were changed with fresh 10% FBS (Thermo Fisher Scientific no. 10437028) DMEM medium (Thermo Fisher Scientific no. 10569044), Puromycin (10 μg/mL Thermo Fisher Scientific no. A1113803) and supplied with 100 nM dTAG-13 (TOCRIS no. 6605/5) or DMSO (Sigma, no. D8418). After 3 days, cell medium was removed and cells were treated with 100 μL lysis buffer (10 mM tris-HCl (pH=7.5), 0.05% SDS, and proteinase K (25 μg/mL, Thermo Fisher Scientific no. 01169965)) followed by 37° C. 1 h, 58° C. 30 min and inactivated at 95° C. for 20 min. The cell lysis was amplified by 2×Phanta Max Master Mix (Vazyme no. p515) following the program: 95° C. 3 min, 95° C. 15s and 58° C. 15s with 72° C. for 35 cycles, and 72° C. 5 min. The editing efficiency was measured by Sanger sequencing and analyzed by EditR (https://moriaritylab.shinyapps.io/editr_v10/) (Kluesner et al., 2018).

wild-type FKBP12 = wild-type FKBP12 (Homo sapiens, UniProt P62942); conditions: refs (32, 36); cited from earlier work
Chain of wild-type FKBP12 (P62942 whole entry, species assumed): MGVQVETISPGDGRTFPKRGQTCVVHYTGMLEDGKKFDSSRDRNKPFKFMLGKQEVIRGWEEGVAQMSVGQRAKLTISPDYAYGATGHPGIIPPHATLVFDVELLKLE

Structure (SMILES)	abnormality or body weight change [1]	prime editing efficiency (His6 Tag insertion) [2]	C-to-T editing [3]	degradation of wild-type FKBP12 (wild-type FKBP12)
Cc1ncsc1-c1ccc(CNC(=O)[C@@H]2C[C@@H](O)CN2C(=O)[C@@H](NC(=O)COCCOCCOCCNC(=O)C[C@@H]2N=C(c3ccc(Cl)cc3)c3c(sc(C)c3C)-n3c(C)nnc32)C(C)(C)C)cc1 [MZ1]	no abnormality or body weight change			
CC[C@H](C(=O)N1CCCC[C@H]1C(=O)O[C@H](CCc1ccc(OC)c(OC)c1)c1ccccc1OCC(=O)NCCCCCCOc1cccc2c1C(=O)N(C1CCC(=O)NC1=O)C2=O)c1cc(OC)c(OC)c(OC)c1 (stereo partly shown) [dTAG-13]		more than 20%	30-50%	do not degrade wild-type FKBP12
